# Experimental data from ChEMBL document CHEMBL3885881, “DrugMatrix”.
# Species on record: Rattus norvegicus
# Test: DrugMatrix - Regimen: Daily Repeat
# Format: toxicity, organism-based, Sprague-Dawley
# Design: regimen Daily Repeat, gender Male, age 6-8 weeks
# Conditions: in vivo, po, route oral GAVAGE, […]; for ABSOLUTE BASOPHIL / ABSOLUTE EOSINOPHIL / ABSOLUTE LYMPHOCYTE / ABSOLUTE MONOCYTE / ABSOLUTE SEGMENTED NEUTROPHIL / BASOPHIL / EOSINOPHIL / ERYTHROCYTE COUNT / HEMATOCRIT / HEMOGLOBIN / LEUKOCYTE COUNT / LYMPHOCYTE / MEAN CORPUSCULAR HEMOGLOBIN / MEAN CORPUSCULAR HEMOGLOBIN CONCENTRATION / MEAN CORPUSCULAR VOLUME / MONOCYTE / NEUTROPHIL / NUCLEATED RED BLOOD CELLS / PLATELET COUNT: tissue Blood; for ALANINE AMINOTRANSFERASE / ALBUMIN / ALKALINE PHOSPHATASE / ASPARTATE AMINOTRANSFERASE / BLOOD UREA NITROGEN / CARBON DIOXIDE / CHLORIDE / CHOLESTEROL / CREATINE PHOSPHOKINASE / CREATININE / GLUCOSE / LACTATE DEHYDROGENASE / LIPASE / PHOSPHORUS / POTASSIUM / SODIUM / TOTAL BILIRUBIN / TOTAL PROTEIN / URIC ACID: tissue Plasma
# [1] = 0 mg/kg, 72 h, dose level Control, time 3 day
# [2] = 0 mg/kg, 120 h, dose level Control, time 5 day
# [3] = 10 mg/kg, 72 h, dose level Low, time 3 day
# [4] = 10 mg/kg, 120 h, dose level Low, time 5 day
compound,measurement,setting,value
C#C[C@]1(O)CC[C@H]2[C@@H]3CCc4cc(O)ccc4[C@H]3CC[C@@]21C [ETHINYL ESTRADIOL],ABSOLUTE BASOPHIL,[1],0 CELLS/uL
same,ABSOLUTE EOSINOPHIL,[1],104.17 CELLS/uL
same,ABSOLUTE LYMPHOCYTE,[1],14547 CELLS/uL
same,ABSOLUTE MONOCYTE,[1],292 CELLS/uL
same,ABSOLUTE SEGMENTED NEUTROPHIL,[1],1640.17 CELLS/uL
same,BASOPHIL,[1],0%
same,EOSINOPHIL,[1],0.67%
same,ERYTHROCYTE COUNT,[1],5.35 x10E6/uL
same,HEMATOCRIT,[1],33.67%
same,HEMOGLOBIN,[1],13.38 G/DL
same,LEUKOCYTE COUNT,[1],16.58 x10E3/uL
same,LYMPHOCYTE,[1],87.5%
same,MEAN CORPUSCULAR HEMOGLOBIN,[1],25.05 pg
same,MEAN CORPUSCULAR HEMOGLOBIN CONCENTRATION,[1],39.78 G/DL
same,MEAN CORPUSCULAR VOLUME,[1],62.97 fL
same,MONOCYTE,[1],1.83%
same,NEUTROPHIL,[1],10%
same,NUCLEATED RED BLOOD CELLS,[1],0 /100WBC
same,PLATELET COUNT,[1],1274.5 x10E3/uL
same,ALANINE AMINOTRANSFERASE,[1],76.83 u/L
same,ALBUMIN,[1],3.97 G/DL
same,ALKALINE PHOSPHATASE,[1],347 u/L
same,ASPARTATE AMINOTRANSFERASE,[1],97.17 u/L
same,BLOOD UREA NITROGEN,[1],14.33 mg/dL
same,CARBON DIOXIDE,[1],25.5 mmol/L
same,CHLORIDE,[1],100.33 MEQ/L
same,CHOLESTEROL,[1],68.67 mg/dL
same,CREATINE PHOSPHOKINASE,[1],659.17 u/L
same,CREATININE,[1],0.32 mg/dL
same,GLUCOSE,[1],160.67 mg/dL
same,LACTATE DEHYDROGENASE,[1],271.5 u/L
same,LIPASE,[1],11.67 u/L
same,PHOSPHORUS,[1],10.65 mg/dL
same,POTASSIUM,[1],5.95 MEQ/L
same,SODIUM,[1],139.65 MEQ/L
same,TOTAL BILIRUBIN,[1],0.2 mg/dL
same,TOTAL PROTEIN,[1],5.72 G/DL
same,URIC ACID,[1],1.37 mg/dL
same,ABSOLUTE BASOPHIL,[2],0 CELLS/uL
same,ABSOLUTE EOSINOPHIL,[2],331.5 CELLS/uL
same,ABSOLUTE LYMPHOCYTE,[2],15021.67 CELLS/uL
same,ABSOLUTE MONOCYTE,[2],376.5 CELLS/uL
same,ABSOLUTE SEGMENTED NEUTROPHIL,[2],3070.33 CELLS/uL
same,BASOPHIL,[2],0%
same,EOSINOPHIL,[2],1.83%
same,ERYTHROCYTE COUNT,[2],5.24 x10E6/uL
same,HEMATOCRIT,[2],33.22%
same,HEMOGLOBIN,[2],13.2 G/DL
same,LEUKOCYTE COUNT,[2],18.8 x10E3/uL
same,LYMPHOCYTE,[2],79.67%
same,MEAN CORPUSCULAR HEMOGLOBIN,[2],25.17 pg
same,MEAN CORPUSCULAR HEMOGLOBIN CONCENTRATION,[2],39.73 G/DL
same,MEAN CORPUSCULAR VOLUME,[2],63.38 fL
same,MONOCYTE,[2],2%
same,NEUTROPHIL,[2],16.5%
same,NUCLEATED RED BLOOD CELLS,[2],0 /100WBC
same,PLATELET COUNT,[2],1142.67 x10E3/uL
same,ALANINE AMINOTRANSFERASE,[2],52.5 u/L
same,ALBUMIN,[2],3.9 G/DL
same,ALKALINE PHOSPHATASE,[2],284.5 u/L
same,ASPARTATE AMINOTRANSFERASE,[2],81.33 u/L
same,BLOOD UREA NITROGEN,[2],16 mg/dL
same,CARBON DIOXIDE,[2],25.33 mmol/L
same,CHLORIDE,[2],99.5 MEQ/L
same,CHOLESTEROL,[2],74.83 mg/dL
same,CREATINE PHOSPHOKINASE,[2],448.33 u/L
same,CREATININE,[2],0.37 mg/dL
same,GLUCOSE,[2],164.17 mg/dL
same,LACTATE DEHYDROGENASE,[2],290.67 u/L
same,LIPASE,[2],6.83 u/L
same,PHOSPHORUS,[2],11.5 mg/dL
same,POTASSIUM,[2],6.28 MEQ/L
same,SODIUM,[2],139.5 MEQ/L
same,TOTAL BILIRUBIN,[2],0.13 mg/dL
same,TOTAL PROTEIN,[2],5.55 G/DL
same,URIC ACID,[2],1.12 mg/dL
same,ABSOLUTE BASOPHIL,[3],0 CELLS/uL
same,ABSOLUTE EOSINOPHIL,[3],112 CELLS/uL
same,ABSOLUTE LYMPHOCYTE,[3],12658 CELLS/uL
same,ABSOLUTE MONOCYTE,[3],346 CELLS/uL
same,ABSOLUTE SEGMENTED NEUTROPHIL,[3],1350.67 CELLS/uL
same,BASOPHIL,[3],0%
same,EOSINOPHIL,[3],1%
same,ERYTHROCYTE COUNT,[3],5.67 x10E6/uL
same,HEMATOCRIT,[3],36.5%
same,HEMOGLOBIN,[3],13.83 G/DL
same,LEUKOCYTE COUNT,[3],14.47 x10E3/uL
same,LYMPHOCYTE,[3],87.33%
same,MEAN CORPUSCULAR HEMOGLOBIN,[3],24.43 pg
same,MEAN CORPUSCULAR HEMOGLOBIN CONCENTRATION,[3],37.9 G/DL
same,MEAN CORPUSCULAR VOLUME,[3],64.47 fL
same,MONOCYTE,[3],2.33%
same,NEUTROPHIL,[3],9.33%
same,NUCLEATED RED BLOOD CELLS,[3],0 /100WBC
same,PLATELET COUNT,[3],1151 x10E3/uL
same,ALANINE AMINOTRANSFERASE,[3],33.67 u/L
same,ALBUMIN,[3],3.67 G/DL
same,ALKALINE PHOSPHATASE,[3],715.33 u/L
same,ASPARTATE AMINOTRANSFERASE,[3],58.67 u/L
same,BLOOD UREA NITROGEN,[3],12 mg/dL
same,CARBON DIOXIDE,[3],22 mmol/L
same,CHLORIDE,[3],103.33 MEQ/L
same,CHOLESTEROL,[3],20 mg/dL
same,CREATINE PHOSPHOKINASE,[3],384.33 u/L
same,CREATININE,[3],0.1 mg/dL
same,GLUCOSE,[3],148.33 mg/dL
same,LACTATE DEHYDROGENASE,[3],168.67 u/L
same,LIPASE,[3],8 u/L
same,PHOSPHORUS,[3],10.77 mg/dL
same,POTASSIUM,[3],6.1 MEQ/L
same,SODIUM,[3],141.07 MEQ/L
same,TOTAL BILIRUBIN,[3],0.13 mg/dL
same,TOTAL PROTEIN,[3],5.3 G/DL
same,URIC ACID,[3],1.13 mg/dL
same,ABSOLUTE BASOPHIL,[4],0 CELLS/uL
same,ABSOLUTE EOSINOPHIL,[4],138 CELLS/uL
same,ABSOLUTE LYMPHOCYTE,[4],9196.33 CELLS/uL
same,ABSOLUTE MONOCYTE,[4],408.33 CELLS/uL
same,ABSOLUTE SEGMENTED NEUTROPHIL,[4],1390.67 CELLS/uL
same,BASOPHIL,[4],0%
same,EOSINOPHIL,[4],1%
same,ERYTHROCYTE COUNT,[4],5.71 x10E6/uL
same,HEMATOCRIT,[4],34.9%
same,HEMOGLOBIN,[4],13.2 G/DL
same,LEUKOCYTE COUNT,[4],11.13 x10E3/uL
same,LYMPHOCYTE,[4],83%
same,MEAN CORPUSCULAR HEMOGLOBIN,[4],23.1 pg
same,MEAN CORPUSCULAR HEMOGLOBIN CONCENTRATION,[4],37.83 G/DL
same,MEAN CORPUSCULAR VOLUME,[4],61.17 fL
same,MONOCYTE,[4],3.67%
same,NEUTROPHIL,[4],12.33%
same,NUCLEATED RED BLOOD CELLS,[4],0 /100WBC
same,PLATELET COUNT,[4],1450 x10E3/uL
same,ALANINE AMINOTRANSFERASE,[4],54.67 u/L
same,ALBUMIN,[4],3.87 G/DL
same,ALKALINE PHOSPHATASE,[4],644.33 u/L
same,ASPARTATE AMINOTRANSFERASE,[4],72.67 u/L
same,BLOOD UREA NITROGEN,[4],8.33 mg/dL
same,CARBON DIOXIDE,[4],22.33 mmol/L
same,CHLORIDE,[4],101.33 MEQ/L
same,CHOLESTEROL,[4],17.33 mg/dL
same,CREATINE PHOSPHOKINASE,[4],692.67 u/L
same,CREATININE,[4],0.12 mg/dL
same,GLUCOSE,[4],153.33 mg/dL
same,LACTATE DEHYDROGENASE,[4],158 u/L
same,LIPASE,[4],4.33 u/L
same,PHOSPHORUS,[4],10.27 mg/dL
same,POTASSIUM,[4],5.78 MEQ/L
same,SODIUM,[4],139.87 MEQ/L
same,TOTAL BILIRUBIN,[4],0.23 mg/dL
same,TOTAL PROTEIN,[4],6.07 G/DL
same,URIC ACID,[4],1.63 mg/dL
